Data set [1] relates to SH-SY5Y cells. Nature of the data set: Cytotoxicity on SH-SY5Y cells (MTT). It counts as cell-based, human. Conditions: 20 μM. The procedure: (§1) The cytotoxicity of our synthesized compounds was examined in human neuroblastoma SH-SY5Y cells. The cell viability was determined by using methyl thiazolyl tetrazolium (MTT) colorimetry, the cells were treated with different concentrations of compounds (0–100 μM). The result is shown in the Supplementary Materials (Table S1).
(§2) The cytotoxicities of the compounds were evaluated using the MTT assay. SH-SY5Y cells were subcultured in 96-well plates at a seeding density of 1 × 10^4 cells per well. After 24 h, the medium was removed and treated with different concentrations of tested compounds for 24 h at 37 °C. The survival of cells was determined with MTT assay. Then 80 μL of medium and 20 μL of MTT (0.5 mg/mL, final concentration) were added to each well and incubated for another 4 h. After the removal of MTT, the formazan crystals were dissolved in DMSO. The amount of formazan was measured using a microculture plate reader at the wavelength of 570 nm. Each concentration was performed in triplicate.

Data set [2] is described as follows: Cytotoxicity on SH-SY5Y cells (MTT). The class given is cell-based, human. Conditions: human, SH-SY5Y neuroblastoma cells; MTT, 24 h; mean ± SEM of three measurements. The method, then:
as §1, §2

A further data set concerns the target AChE (Homo sapiens, UniProt P22303). The experiment in a line: AChE inhibition (data not shown). The class given is biochemical.
Another data set concerns the target BuChE (Homo sapiens, UniProt P06276). Nature of the data set: BuChE inhibition (data not shown). It counts as biochemical.
A further data set addresses T1, Aβ1–42 (Homo sapiens, UniProt P05067).
T1 construct: Aβ1–42 (Sigma, St. Louis, MO, USA; counterion, NaOH) stock solution was prepared by dissolving Aβ1–42 peptide in ammonium hydroxide; purchased Sigma
Nature of the data set: Inhibition of self-induced Aβ1–42 aggregation (ThT fluorescence assay). The class given is biochemical. The method, then:
The formation and aggregation of Aβ1–42 in the brain leads to neurotoxicity in AD. In order to evaluate the activity of our new synthetic compounds to inhibit Aβ1–42 self-induced aggregation, the thioflavin (ThT) fluorescence assay was performed.
All ThT experiments were performed according to our previously published methods. Aβ1–42 (Sigma, St. Louis, MO, USA; counterion, NaOH) stock solution was prepared by dissolving Aβ1–42 peptide in ammonium hydroxide (1% v/v), and diluting with 20 mM phosphate buffer (pH 7.4) to 100 μM. The tested compounds were firstly dissolved in DMSO at a concentration of 10 mM, and then diluted with 20 mM phosphate buffer (pH 7.4) to 40 μM.
For the inhibition of self-induced Aβ1–42 aggregation. Aβ1–42 peptide (2 μL, 50 μM, final concentration) with the tested compound (2 μL, 20 μM, final concentration) or 20 mM phosphate buffer (2 μL) was incubated in 20 mM phosphate buffer (pH 7.4) at 37 °C for 72 h. After incubation, the samples were diluted to a final volume of 36 μL with 50 mM glycine-NaOH buffer (pH 8.5) containing 5 μM Thioflavin T. Fluorescence signal was measured (excitation wavelength 450 nm, emission wavelength 485 nm, and slit widths set to 5 nm) on a monochromator-based multimode microplate reader ([…] M1000, TECAN, Hombrechtikon, Switzerland), adapted for 384-well microtiter plates. […] Each compound was examined in triplicate.

Data set [3] deals with SH-SY5Y cells. Nature of the data set: Cellular ROS detection (DCFH-DA) in SH-SY5Y cells treated with t-BuOOH. It counts as cell-based, human. Conditions: compound 2.5 μM; 0.1 mM t-BuOOH; compared with Trolox. The method, then: To further investigate their antioxidant activity in SH-SY5Y cells, cellular ROS detection assay based on dichlorofluorescein diacetate (DCFH-DA) was performed. with Trolox and N-acetyl-L-cysteine (NAC) as reference compounds.
SH-SY5Y cells were maintained in Dulbecco’s modified Eagle’s medium (DEME) and supplemented with 1 mM glutamine, 10% fetal calf serum, 100 U/mL penicillin, and 100 μg/mL streptomycin. The cultures were maintained at 37 °C in a humidified incubator containing 5% CO2 and were passaged twice weekly.
The antioxidant activity of the compounds in SH-SY5Y cells were tested with the fluorescent probe (2′,7′-dichlorofluorescein diacetate, DCFH-DA) as reported with some variation. SH-SY5Y cells were sub-cultured in 96-well plates at a seeding density of 1 × 10^4 cells per well for 24 h, then the medium was removed, the tested compounds (2.5 μM) was added and incubated for another 24 h at 37 °C. After that, the cells were washed with PBS and incubated with 5 μM DCFH-DA in PBS at 37 °C in 5% CO2 for 30 min. Then DCFH-DA was removed, the cells were washed three times and incubated with 0.1 mM t-BuOOH in PBS for 30 min. After the incubation, the cell fluorescence from each well was measured at 485 nm excitation and 535 nm emission with a monochromator based multimode microplate reader ([…] M1000).

Data set [4] has as its target T2, Aβ1–42 fibrils (Homo sapiens, UniProt P05067).
T2 construct: Aβ1–42 (Sigma, St. Louis, MO, USA; counterion, NaOH) stock solution was prepared by dissolving Aβ1–42 peptide in ammonium hydroxide; purchased Sigma
The experiment in a line: TEM assay of Aβ1–42 fibrils. It counts as biochemical. To be noted: compound 20 μM. The procedure: To further complement the ThT binding assay, A transmission electron microscopy (TEM) assay was employed to monitor and clarify the effect of compound 6b1 on Aβ1−42 aggregation.
(§3) The ability of compound 6b1 to disaggregate self-induced Aβ1–42 aggregation fibrils was also investigated. Aβ1–42 fibrils were prepared by incubating fresh Aβ1–42 for 24 h at 37 °C, and the test compound was added to the sample and incubated for another 24 h at 37 °C. Then the sample was analyzed by ThT binding assay and TEM assay.
Aβ1–42 peptide (Sigma) was dissolved in 20 mM phosphate buffer (pH 7.4) at 4 °C to 100 μM before use.
Aβ1–42 was incubated at 37 °C for 24 h. Then, 40 μM tested compound was added and incubated at 37 °C for another 24 h. The final concentrations of Aβ1–42 and the compounds were 50 μM and 20 μM, respectively. After incubation, aliquots (5 μL) of the samples were placed on a carbon-coated copper/rhodium grid for 2 min at room temperature. Each grid was stained with uranyl acetate (1%, 5 μL) for 2 min. Excess staining solution was removed and the specimen was transferred for imaging with transmission electron microscopy (JEOL JEM-1400, Tokyo, Japan).

Data set [5] addresses T2, Aβ1–42 fibrils. The experiment in a line: Disaggregation of self-induced Aβ1–42 aggregation fibrils (ThT binding assay). Conditions: compound 20 μM, fibrils formed 24 h, then 24 h with compound, 37 °C. The class given is biochemical. The method, then: as §3

T2 sequence (P05067 672-713): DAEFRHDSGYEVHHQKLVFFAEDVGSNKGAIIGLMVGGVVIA
T1 sequence (P05067 672-713): as above
BuChE, sequence (P06276 29-602): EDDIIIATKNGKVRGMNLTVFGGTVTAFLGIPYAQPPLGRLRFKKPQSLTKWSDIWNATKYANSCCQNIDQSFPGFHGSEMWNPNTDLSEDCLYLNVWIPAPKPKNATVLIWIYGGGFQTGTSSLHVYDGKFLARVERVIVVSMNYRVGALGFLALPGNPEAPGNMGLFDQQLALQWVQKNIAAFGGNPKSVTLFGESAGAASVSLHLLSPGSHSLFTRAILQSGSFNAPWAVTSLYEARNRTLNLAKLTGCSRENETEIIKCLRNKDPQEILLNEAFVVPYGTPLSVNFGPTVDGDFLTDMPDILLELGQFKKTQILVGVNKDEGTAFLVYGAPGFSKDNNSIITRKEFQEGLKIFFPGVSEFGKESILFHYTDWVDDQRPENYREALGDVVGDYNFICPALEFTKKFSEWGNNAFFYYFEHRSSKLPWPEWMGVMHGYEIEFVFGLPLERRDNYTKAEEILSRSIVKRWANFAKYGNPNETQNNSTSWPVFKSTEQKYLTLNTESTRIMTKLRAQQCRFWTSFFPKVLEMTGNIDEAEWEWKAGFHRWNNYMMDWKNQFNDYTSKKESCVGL
AChE, sequence (P22303 32-614): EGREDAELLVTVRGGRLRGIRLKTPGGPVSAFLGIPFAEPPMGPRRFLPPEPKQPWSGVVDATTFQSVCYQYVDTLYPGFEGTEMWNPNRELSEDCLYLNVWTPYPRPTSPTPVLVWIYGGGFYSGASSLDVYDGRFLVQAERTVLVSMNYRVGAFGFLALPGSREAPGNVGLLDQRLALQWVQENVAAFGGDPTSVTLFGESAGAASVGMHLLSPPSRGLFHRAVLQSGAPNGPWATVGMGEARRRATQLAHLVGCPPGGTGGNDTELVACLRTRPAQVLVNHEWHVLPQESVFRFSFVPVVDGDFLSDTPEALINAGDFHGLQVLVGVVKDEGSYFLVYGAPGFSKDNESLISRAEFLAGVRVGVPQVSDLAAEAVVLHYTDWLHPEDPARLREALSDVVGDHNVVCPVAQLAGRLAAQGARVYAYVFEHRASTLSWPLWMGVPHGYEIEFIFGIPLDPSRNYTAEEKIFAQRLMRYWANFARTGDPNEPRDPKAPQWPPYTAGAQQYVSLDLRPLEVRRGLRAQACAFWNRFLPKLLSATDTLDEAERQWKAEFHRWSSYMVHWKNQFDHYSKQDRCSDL

What is called IC50 is the point on the concentration scale where inhibition reaches its midpoint. Usually inhibition stands for the share of the control response that was lost under treatment. For the molecule `CCN(CC)c1ccc(/C=C/c2cc(NCCCN(C)C)c3ccccc3n2)cc1` [Compound 6b1, (E)-N^1-(2-(4-(Diethylamino)styryl)quinolin-4-yl)-N^3,N^3-dimethylpropane-1,3-diamine], the “Effect on SH-SY5Y cell viability, compound alone” value in the data set with SH-SY5Y cells [1] was “does not affect cell viability”. Also, in data set [2], the IC50 at 24 h was 254 µM. Further, the “Inhibitory activity toward AChE” value on AChE is recorded as “weak”. In addition, the “Inhibitory activity toward BuChE” value at BuChE is on record as “weak”. For the same molecule, the IC50 on Aβ1–42 (ThT fluorescence method, mean ± SD of three experiments, read-out: IC50 against self-induced Aβ1–42 aggregation) is 4.5 ± 0.7 µM. The same molecule returned an inhibition at 20 µM against Aβ1–42 (inhibitor 20 μM, Aβ1–42 50 μM, ThT, 37 °C, 72 h, mean ± SD) of 95.3 ± 1.2%. The “Antioxidant activity in SH-SY5Y cells (ROS generation, DCFH-DA fluorescence)” value in the data set on SH-SY5Y cells [3] is “more antioxidant activity than Trolox”. Besides, on Aβ1–42 fibrils [4] (37 °C, 24 h), the “TEM: Aβ1–42 fibril formation in presence of compound” value was “only fewer thin fibrils and small bulk aggregates”. Further, the “TEM: disaggregation of Aβ1–42 fibrils” value on Aβ1–42 fibrils [4] (preformed fibrils, 24 h at 37 °C) is given as “could disaggregate more Aβ1–42 fibrils than resveratrol”. The “Disaggregation ratio of self-induced Aβ1–42 fibrils” value on Aβ1–42 fibrils [5] stood at 64.3%.

The values above are taken from paper PMC6321145 (Molecules, 2018).
